Data published in US10351536B2, “Crystalline forms of lesinurad and its sodium salt” (CRYSTAL PHARMATECH CO., LTD., priority 2013, dated 2019).
Structures can show the parent of a compound that is named as a salt. Values belong to the compound of their own block, whether it stands above or below them.

What was measured:
[1] = Stability assessment of lesinurad sodium salt Form β on storage (XRPD); type: physicochemical; details: room temperature, 12 months
Description: (§1) Analytical Instrument: Panalytical Empyrean. The X-ray powder diffractogram was determined by mounting a sample of the crystalline material on a Si single crystal low-background holder and spreading out the sample into a thin layer with the aid of a microscope slide. The 2θ position was calibrated against Panalytical 640 Si powder standard. The sample irradiated with X-rays generated by a copper long-fine focus tube operated at 45 kV and 40 mA with a wavelength of Kα1=1.540589 angstroms and Kα2=1.544426 angstroms (Kα1/Kα2 intensity ratio is 0.50). The collimated X-ray source was passed through a programmed divergence slit set at 10 mm and the reflected radiation directed through a 5.5 mm anti-scattering slit. The sample was exposed for 16.3 seconds per 0.013° 2-theta increment (continuous scan mode) over the range 3 degrees to 40 degrees 2-theta in theta-theta mode. The running time was 3 minutes and 57 seconds. The instrument was equipped with an RTMS detector (X'Celerator). Control and data capture was accomplished by means of a Dell Optiplex 780 XP operating with data collector software.
A sample of the lesinurad sodium salt Form β was stored under room temperature for 12 months. The solid sample was analyzed by XRPD.

gout patients = details: Phase III, gout patients without benefit from allopurinol and febuxostat, lesinurad alone; cited from earlier work
[2] = Inter-conversion of Form A and Form α of lesinurad sodium salt by stirring in water (XRPD); type: physicochemical
[3] = Stability assessment of Form III under stress conditions (XRPD); type: physicochemical; details: 14 days; for Final form: dish open, XRPD
Description: as §1
Two samples of lesinurad Form III were stored under 25° C./60% RH and 40° C./75% RH, respectively, with dish open for 14 days. The solid samples were analyzed by XRPD.

[4] = Hygroscopicity assessment by dynamic vapor sorption (DVS); type: physicochemical; details: 25° C.
Description: Dynamic Vapor Sorption (DVS) was measured via a SMS (Surface Measurement Systems) DVS Intrinsic. The relative humidity at 25° C. were calibrated against deliquescence point of LiCl, Mg(NO3)2 and KCl. Typical Parameters for DVS test are listed below.
Hygroscopicity of lesinurad Form III was investigated using dynamic vapor sorption (DVS).
Hygroscopicity criteria applied in this example refer to the standard in European pharmacopoeia: • deliquescent: sufficient water is absorbed to form a liquid, • very hygroscopic: increase in mass is equal to or greater than 15 percent, • hygroscopic: increase in mass is less than 15 percent and equal to or greater than 2 percent, • slightly hygroscopic: increase in mass is less than 2 percent and equal to or greater than 0.2 percent.

Relative stability in water ([2]; in water under ambient conditions): more stable in comparison to Form A
SMILES: O=C(O)CSc1nnc(Br)n1-c1ccc(C2CC2)c2ccccc12 [Form α, lesinurad sodium salt]

Stability under the stress conditions ([3]; 25° C./60% RH and 40° C./75% RH): stable under the stress conditions
Final form ([3]; 25° C./60% RH): Form III
Final form ([3]; 40° C./75% RH): Form III
Water uptake under 80% RH ([4]; 80% RH): 0.8%
Water uptake under 95% RH ([4]; 95% RH): 2.4%
SMILES: O=C(O)CSc1nnc(Br)n1-c1ccc(C2CC2)c2ccccc12 [Form III, 2-((5-bromo-4-(4-cyclopropylnaphthalen-1-yl)-4H-1,2,4-triazol-3-yl)thio)acetic acid]
Hygroscopicity (European pharmacopoeia criteria) ([4]; 80% RH): slightly hygroscopic (increase in mass is less than 2 percent and equal to or greater than 0.2 percent)

The remaining lines, values behind:

SMILES: O=C(O)CSc1nnc(Br)n1-c1ccc(C2CC2)c2ccccc12 [Form β, lesinurad sodium salt]
Stability under the stress conditions [1]: stable under the stress conditions
Final form ([1]; XRPD): salt Form β

SMILES: O=C(O)CSc1nnc(Br)n1-c1ccc(C2CC2)c2ccccc12 [lesinurad, 2-((5-bromo-4-(4-cyclopropylnaphthalen-1-yl)-4H-1,2,4-triazol-3-yl)thio)acetic acid]
Serum levels of uric acid (gout patients): significantly reduced serum levels of uric acid

SMILES: O=C(O)CSc1nnc(Br)n1-c1ccc(C2CC2)c2ccccc12 [Form A, lesinurad sodium salt, reference compound]
Form conversion after stirring in water ([2]; water, 500 rpm, 24 hours, ambient conditions, XRPD): converts to Form α
